# According to patent publication US20170304388A1, “NEW INDICATION OF CARDIOVASCULAR DRUGS FOR PREPARATION OF CANCER INHIBITION PHARMACEUTICAL COMPOSITION” (LAUNX BIOMEDICAL CO., LTD., priority 2014, published 2017):
# Where two headings read alike, the source gives them in different places.
# How the values were obtained:
# Assay type in all cases: cell-based
# [1] = system: AGS (Gastric Adenocarcinoma); assay: Cell viability analysis (WST-1), AGS; details: 72 h
# BxPC-3 = assay: Cell viability analysis (WST-1), BxPC-3; details: Homo sapiens, BXPC-3, 72 h, Table 4, repeated experiments, drug 10 μM, read-out: survival rate (viability) of cancer cells, BxPC-3
# In short: (§1)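 Wells receive 3000 cells, and the medium is swapped for drug at 10 μM. Seventy-two hours later, WST-1 reagent diluted 9:1 with medium is added, plates sit at 37° C for 30–90 minutes, and OD450 nm yields survival rate.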
# [2] = system: A549 (Lung Adenocarcinoma); assay: Cell viability analysis (WST-1), A549; details: Homo sapiens, A549, 72 h
# [3] = system: MCF7 (Mammary Gland, Adenocarcinoma); assay: Cell viability analysis (WST-1), MCF7; details: Homo sapiens, MCF7, 72 h
# cancer cell lines = assay: Growth inhibitory effects on the panel of cancer cell lines; details: count of cancer cell lines inhibited; drug 10 μM, 72 hours
# [4] = system: A375 (Amelanotic Melanoma); assay: Cell viability analysis (WST-1), A375; details: Homo sapiens, A-375, 72 h
# [5] = system: TSGH-8301 (Urinary Bladder Carcinoma); assay: Cell viability analysis (WST-1), TSGH-8301; details: 72 h, Table 4, repeated experiments, drug 10 μM, WST-1, read-out: survival rate (viability) of cancer cells, TSGH-8301
# T24 = assay: Cell viability analysis (WST-1), T24; details: Homo sapiens, T-24, 72 h, Table 4, repeated experiments, drug 10 μM, read-out: survival rate (viability) of cancer cells, T24
# In short: as §1
# [6] = system: HeLa (Cervix Adenocarcinoma); assay: Cell viability analysis (WST-1), HeLa; details: Homo sapiens, HeLa, 72 h
# [7] = system: H1650 (Lung Adenocarcinoma); assay: Cell viability analysis (WST-1), H1650; details: Homo sapiens, NCI-H1650, 72 h
# SAS = assay: Cell viability analysis (WST-1), SAS; details: 72 h, Table 4, repeated experiments, drug 10 μM, read-out: survival rate (viability) of cancer cells, SAS
# In short: as §1
# [8] = system: LoVo (Colorectal Adenocarcinoma); assay: Cell viability analysis (WST-1), LoVo; details: Homo sapiens, LoVo, 72 h
# U2OS = assay: Cell viability analysis (WST-1), U2OS; details: Homo sapiens, U2OS, 72 h, Table 4, repeated experiments, drug 10 μM, read-out: survival rate (viability) of cancer cells, U2OS
# In short: as §1
# C-33A = assay: Cell viability analysis (WST-1), C-33A; details: Homo sapiens, C-33-A, 72 h, Table 4, repeated experiments, drug 10 μM, read-out: survival rate (viability) of cancer cells, C-33A
# In short: as §1
# AsPC-1 = assay: Cell viability analysis (WST-1), AsPC-1; details: Homo sapiens, ASPC1, 72 h, Table 4, repeated experiments, drug 10 μM, read-out: survival rate (viability) of cancer cells, AsPC-1
# In short: as §1
# 786-O = assay: Cell viability analysis (WST-1), 786-O; details: Homo sapiens, 786-0, 72 h, Table 4, repeated experiments, drug 10 μM, read-out: survival rate (viability) of cancer cells, 786-O
# In short: as §1
# NIH-OVCAR-3 = assay: Cell viability analysis (WST-1), NIH-OVCAR-3; details: Homo sapiens, OVCAR-3, 72 h, Table 4, repeated experiments, drug 10 μM, read-out: survival rate (viability) of cancer cells, NIH-OVCAR-3
# In short: as §1
# [9] = system: HCT116 (Colorectal Carcinoma); assay: Cell viability analysis (WST-1), HCT116; details: Homo sapiens, HCT-116, 72 h
# Hep3B = assay: Cell viability analysis (WST-1), Hep3B; details: Homo sapiens, Hep3B, 72 h, Table 4, repeated experiments, drug 10 μM, read-out: survival rate (viability) of cancer cells, Hep3B
# In short: as §1
structure (smiles),measurement,setting,value
"CCC(C)(C)C(=O)O[C@H]1C[C@@H](C)C=C2C=C[C@H](C)[C@H](CC[C@@H]3C[C@@H](O)CC(=O)O3)[C@H]21 [Simvastatin (Zocor), Simvastatin]",viability at 10 µM,"[1]; Table 3, drug 10 μM, WST-1, OD450 nm, read-out: survival rate (viability) of cancer cells, AGS",85.6%
same,viability at 10 µM,"[1]; Table 4, repeated experiments, drug 10 μM, WST-1, read-out: survival rate (viability) of cancer cells, AGS",81%
same,viability at 10 µM,BxPC-3,81.8%
same,viability at 10 µM,"[2]; Table 3, drug 10 μM, WST-1, OD450 nm, read-out: survival rate (viability) of cancer cells, A549",126%
same,viability at 10 µM,"[2]; Table 4, repeated experiments, drug 10 μM, WST-1, read-out: survival rate (viability) of cancer cells, A549",110%
same,viability at 10 µM,"[3]; Table 3, drug 10 μM, WST-1, OD450 nm, read-out: survival rate (viability) of cancer cells, MCF7",81.5%
same,viability at 10 µM,"[3]; Table 4, repeated experiments, drug 10 μM, WST-1, read-out: survival rate (viability) of cancer cells, MCF-7",88.8%
same,Numbers of inhibitory effect on cancer cell line,cancer cell lines,0
same,viability at 10 µM,"[4]; Table 3, drug 10 μM, WST-1, OD450 nm, lower viability = better inhibition, read-out: survival rate (viability) of cancer cells, A375",114%
same,viability at 10 µM,"[4]; Table 4, repeated experiments, drug 10 μM, WST-1, read-out: survival rate (viability) of cancer cells, A375",78.6%
same,viability at 10 µM,[5],106%
same,viability at 10 µM,T24,89.6%
same,viability at 10 µM,"[6]; Table 3, drug 10 μM, WST-1, OD450 nm, read-out: survival rate (viability) of cancer cells, HeLa",104%
same,viability at 10 µM,"[6]; Table 4, repeated experiments, drug 10 μM, WST-1, read-out: survival rate (viability) of cancer cells, HeLa",100%
same,viability at 10 µM,"[7]; Table 3, drug 10 μM, WST-1, OD450 nm, read-out: survival rate (viability) of cancer cells, H1650",115%
same,viability at 10 µM,"[7]; Table 4, repeated experiments, drug 10 μM, WST-1, read-out: survival rate (viability) of cancer cells, H1650",79.8%
same,viability at 10 µM,SAS,83.9%
same,viability at 10 µM,"[8]; Table 3, drug 10 μM, WST-1, OD450 nm, read-out: survival rate (viability) of cancer cells, LoVo",99.9%
same,viability at 10 µM,"[8]; Table 4, repeated experiments, drug 10 μM, WST-1, read-out: survival rate (viability) of cancer cells, LoVo",89.3%
same,viability at 10 µM,U2OS,65.6%
same,viability at 10 µM,C-33A,112%
same,viability at 10 µM,AsPC-1,78.2%
same,viability at 10 µM,786-O,87.8%
same,viability at 10 µM,NIH-OVCAR-3,98.4%
same,viability at 10 µM,"[9]; Table 3, drug 10 μM, WST-1, OD450 nm, read-out: survival rate (viability) of cancer cells, HCT116 (WT)",124%
same,viability at 10 µM,"[9]; Table 4, repeated experiments, drug 10 μM, WST-1, read-out: survival rate (viability) of cancer cells, HCT116",83.2%
same,viability at 10 µM,Hep3B,114%
